Measured values published in US12054498B2, “Heteroaromatic macrocyclic ether chemotherapeutic agents” (Nuvalent, Inc., priority 2020, dated 2024).

Experiments:
[1] = tested on: ROS1-positive NSCLC; settings: ROS1-positive NSCLC patients; cited from earlier work
[2] = biological target: T1, Ba/F3 cells CD74-ROS1 wild-type (wt) (Homo sapiens, UniProt P08922); assay: Ba/F3 cell proliferation assay, CD74-ROS1 wild-type; type: cell-based; settings: 72 hours, CellTiter-Glo
T1 construct: fusion of the C-terminus of ROS1 with the N-terminus of various partner proteins; host or cells: Ba/F3 (RIKEN), retroviral pMSCV-puro; the other entry of the earlier key: CD74 (P04233, HLA class II histocompatibility antigen gamma chain)
Summary of the method: (§1)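 Cells were seeded 1 day, then exposed to a 3-fold compound dilution series for 72 hours. Viability was read by CellTiter-Glo luminescence; IC50 came from four-parameter logistic fitting of percent inhibition.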

[3] = biological target: T2, Ba/F3 cells CD74-ROS1 G2032R (Homo sapiens, UniProt P08922, G2032R); assay: Ba/F3 cell proliferation assay, CD74-ROS1 G2032R; type: cell-based; settings: 72 hours, CellTiter-Glo
T2 construct: fusion of the C-terminus of ROS1 with the N-terminus of various partner proteins; host or cells: Ba/F3 (RIKEN), retroviral pMSCV-puro; the other entry of the earlier key: CD74 (P04233, HLA class II histocompatibility antigen gamma chain)
Summary of the method: as §1

[4] = biological target: T3, TRKA-wt (Homo sapiens, UniProt P04629); assay: Biochemical kinase assay, TRKA-wt kinase domain; settings: apparent inhibitory constant, Morrison equation; ATP 2 mM in substrate solution; read-out: TRKA-wt Ki^app
T3 construct: or TRKA-wt (1 nM, BPS Bio, 40280) kinase domains in buffer; purchased BPS Bio 40280
Summary of the method: (§2)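 Continuous fluorescence read (λ=485 nm, every 2 min, 120 min, 30° C). Substrate solution held 2 mM ATP and 26 μM AQT0101 (ROS1/ALK) or AQT0104 (TRKA). Kinase solution: ROS1-G2032R 0.5 nM, ROS1-wt 0.6 nM, TRKA 1 nM, ALK double mutant 3 nM. Initial linear rates fed a Morrison-equation fit giving Ki^app.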

[5] = biological target: T4, ROS1-wt (Homo sapiens, UniProt P08922); assay: Biochemical kinase assay, ROS1-wt kinase domain; settings: apparent inhibitory constant, Morrison equation; ATP 2 mM in substrate solution; read-out: ROS1-wt Ki^app
T4 construct: purchased Carna 08-163
Summary of the method: (§3)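 Kinetic read: 485 nm, 2-min intervals, 120 min, 30 °C. Substrate mix — ATP 2 mM, AQT0101 26 μM, HEPES 50 mM pH 7.5, MgCl2 10 mM. Output: Ki^app, Morrison equation.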

[6] = biological target: T5, Ba/F3 cells TPM3-TRKA (Homo sapiens, UniProt P04629); assay: Ba/F3 cell proliferation assay, TPM3-TRKA; type: cell-based; settings: 72 hours, CellTiter-Glo, read-out: TPM3-NTRK1-wt IC50
T5 construct: host or cells: Ba/F3 (RIKEN), retroviral pMSCV-puro; the other entry of the earlier key: TPM3 (P06753, Tropomyosin alpha-3 chain)
Summary of the method: (§4)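 IC50 values come from four-parameter logistic regression of CellTiter-Glo luminescence after 72 h exposure to 3-fold serial dilutions. Cells are Ba/F3 transformed by retroviral fusion-kinase constructs, grown without IL-3 under puromycin, plated at 1,000 per well a day before dosing.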

[7] = biological target: T6, Ba/F3 cells EML4-ALK L1196M/G1202R (variant 1) (Homo sapiens, UniProt Q9UM73, G1202R/L1196M); assay: Ba/F3 cell proliferation assay, EML4-ALK L1196M/G1202R (variant 1); type: cell-based; settings: 72 hours, CellTiter-Glo
T6 construct: echinoderm microtubule-associated protein-like 4 (EML4) gene and the ALK tyrosine kinase domain; host or cells: Ba/F3 (RIKEN), retroviral pMSCV-puro; the other entry of the earlier key: EML4 (Q9HC35, Echinoderm microtubule-associated protein-like 4)
Summary of the method: as §4

[8] = biological target: T7, ALK L1196M/G1202R (Homo sapiens, UniProt Q9UM73, G1202R/L1196M); assay: Biochemical kinase assay, ALK L1196M/G1202R kinase domain; settings: apparent inhibitory constant, Morrison equation; ATP 2 mM in substrate solution; read-out: ALK-L1196M-G1202R Ki^app
T7 construct: purchased SignalChem A19-12NG
Summary of the method: as §2

[9] = biological target: T8, ALK-wt (Homo sapiens, UniProt Q9UM73); assay: Biochemical kinase assay, ALK-wt kinase domain; settings: apparent inhibitory constant, Morrison equation; ATP 2 mM in substrate solution; read-out: ALK-wt Ki^app
T8 construct: purchased Carna 08-518
Summary of the method: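 Compound in DMSO added first, then substrate solution (ATP 2 mM; AQT0101 or AQT0104, 26 μM; pH 7.5 HEPES, 10 mM MgCl2), then kinase solution with enzyme at 0.5–3 nM depending on construct. Kinetic read every 2 min for 120 min at 30° C; Ki^app by Morrison regression.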

[10] = biological target: T9, ROS1-G2032R (Homo sapiens, UniProt P08922, G2032R); assay: Biochemical kinase assay, ROS1-G2032R kinase domain; settings: apparent inhibitory constant, Morrison equation; ATP 2 mM in substrate solution; read-out: ROS1-G2032R Ki^app
T9 construct: purchased SignalChem R14-12BG
Summary of the method: as §3

[11] = biological target: T10, Ba/F3 cells EML4-ALK wt (variant 1) (Homo sapiens, UniProt Q9UM73); assay: Ba/F3 cell proliferation assay, EML4-ALK wt (variant 1); type: cell-based; settings: 72 hours, CellTiter-Glo
T10 construct: echinoderm microtubule-associated protein-like 4 (EML4) gene and the ALK tyrosine kinase domain; host or cells: Ba/F3 (RIKEN), retroviral pMSCV-puro; the other entry of the earlier key: EML4 (Q9HC35, Echinoderm microtubule-associated protein-like 4)
Summary of the method: as §4

[12] = tested on: TPM3-NTRK1-wt IC50 / primary target IC50 (e.g. CD74-ROS1-wt); assay: TRKA selectivity in Ba/F3 cells (TRKA potency divided by primary target potency); type: cell-based; settings: for TPM3-NTRK1-wt/CD74-ROS1-G2032R selectivity ratio: TRKA potency / CD74-ROS1-G2032R potency; for TPM3-NTRK1-wt/CD74-ROS1-wt selectivity ratio: TRKA potency / CD74-ROS1-wt potency; for TPM3-NTRK1-wt/EML4-ALK-L1196M-G1202R selectivity ratio: TRKA potency / EML4-ALK-L1196M-G1202R potency; for TPM3-NTRK1-wt/EML4-ALK-wt selectivity ratio: TRKA potency / EML4-ALK-wt potency
Procedure: TRKA selectivity was calculated by dividing a compound's TRKA potency by its primary target potency (e.g. TPM3-NTRK1-wt IC50/CD74-ROS1-wt IC50). Compound selectivity can be interpreted by binning ratio values: bin A for very high selectivity, ratio >30-fold; bin B for high selectivity, ratio >10-fold; bin C for moderate selectivity, ratio ≥1; and bin D for low selectivity, ratio <1. […] (nd=not determined).

T9 sequence (P08922 1945-2222 G2032R limits assumed): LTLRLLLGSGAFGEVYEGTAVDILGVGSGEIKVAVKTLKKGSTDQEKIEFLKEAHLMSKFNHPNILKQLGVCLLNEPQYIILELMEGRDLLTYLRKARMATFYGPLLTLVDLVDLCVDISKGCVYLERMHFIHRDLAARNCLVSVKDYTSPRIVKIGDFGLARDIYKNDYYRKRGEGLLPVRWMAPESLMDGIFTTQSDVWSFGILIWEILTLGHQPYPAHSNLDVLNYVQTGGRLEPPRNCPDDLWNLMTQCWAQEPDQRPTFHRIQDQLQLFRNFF
T2 sequence (P08922 1883-2347 G2032R limits assumed): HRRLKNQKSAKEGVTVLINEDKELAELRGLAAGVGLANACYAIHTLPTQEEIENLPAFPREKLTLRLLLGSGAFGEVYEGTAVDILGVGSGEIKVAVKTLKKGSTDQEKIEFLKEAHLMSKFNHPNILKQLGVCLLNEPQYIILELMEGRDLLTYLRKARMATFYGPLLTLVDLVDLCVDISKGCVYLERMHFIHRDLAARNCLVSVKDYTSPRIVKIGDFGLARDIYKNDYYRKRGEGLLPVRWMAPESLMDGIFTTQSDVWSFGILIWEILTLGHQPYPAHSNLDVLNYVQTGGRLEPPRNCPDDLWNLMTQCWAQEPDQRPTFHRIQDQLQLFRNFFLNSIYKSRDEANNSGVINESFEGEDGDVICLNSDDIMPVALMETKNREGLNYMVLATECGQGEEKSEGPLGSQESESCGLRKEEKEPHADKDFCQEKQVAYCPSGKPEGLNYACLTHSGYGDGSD
T4 sequence (P08922 1945-2222 limits assumed): as the sequence (P08922 1945-2222 G2032R limits assumed) above, with R88G counted along it
T6 sequence (Q9UM73 with tags, fused parts or gaps L1196M/G1202R): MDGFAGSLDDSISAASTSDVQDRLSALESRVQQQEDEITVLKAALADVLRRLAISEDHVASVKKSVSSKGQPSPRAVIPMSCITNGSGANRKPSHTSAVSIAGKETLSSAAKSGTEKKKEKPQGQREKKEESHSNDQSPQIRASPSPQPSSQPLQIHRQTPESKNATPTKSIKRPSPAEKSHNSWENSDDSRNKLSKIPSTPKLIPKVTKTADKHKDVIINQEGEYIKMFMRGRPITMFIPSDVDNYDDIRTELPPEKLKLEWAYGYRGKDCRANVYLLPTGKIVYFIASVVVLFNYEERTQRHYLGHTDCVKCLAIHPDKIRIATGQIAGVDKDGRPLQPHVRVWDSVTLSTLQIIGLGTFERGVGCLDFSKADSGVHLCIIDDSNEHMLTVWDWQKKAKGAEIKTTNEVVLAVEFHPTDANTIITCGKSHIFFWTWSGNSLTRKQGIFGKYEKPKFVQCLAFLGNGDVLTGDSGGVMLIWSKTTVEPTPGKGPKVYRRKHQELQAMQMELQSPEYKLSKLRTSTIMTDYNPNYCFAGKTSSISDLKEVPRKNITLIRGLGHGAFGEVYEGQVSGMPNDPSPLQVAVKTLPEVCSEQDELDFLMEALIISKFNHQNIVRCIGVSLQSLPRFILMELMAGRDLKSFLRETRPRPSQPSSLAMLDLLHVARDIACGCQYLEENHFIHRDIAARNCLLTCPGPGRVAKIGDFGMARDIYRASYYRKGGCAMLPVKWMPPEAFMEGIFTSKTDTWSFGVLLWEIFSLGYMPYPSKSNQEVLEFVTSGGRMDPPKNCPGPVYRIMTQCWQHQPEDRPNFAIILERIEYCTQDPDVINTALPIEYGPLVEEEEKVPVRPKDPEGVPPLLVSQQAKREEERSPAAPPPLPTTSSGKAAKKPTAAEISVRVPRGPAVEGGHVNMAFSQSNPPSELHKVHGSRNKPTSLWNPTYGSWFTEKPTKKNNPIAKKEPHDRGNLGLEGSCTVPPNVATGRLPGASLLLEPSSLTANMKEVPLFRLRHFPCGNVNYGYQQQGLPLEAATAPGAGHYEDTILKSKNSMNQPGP
T5 sequence (P04629 510-796 limits assumed): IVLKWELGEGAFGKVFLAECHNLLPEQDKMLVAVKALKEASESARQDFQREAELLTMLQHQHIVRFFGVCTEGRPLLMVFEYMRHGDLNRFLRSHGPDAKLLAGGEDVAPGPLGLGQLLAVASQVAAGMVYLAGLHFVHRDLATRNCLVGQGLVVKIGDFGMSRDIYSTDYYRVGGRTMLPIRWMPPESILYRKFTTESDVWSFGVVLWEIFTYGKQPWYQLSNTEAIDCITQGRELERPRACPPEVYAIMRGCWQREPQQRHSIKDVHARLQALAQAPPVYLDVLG
T1 sequence (P08922 1883-2347 limits assumed): as the sequence (P08922 1883-2347 G2032R limits assumed) above, with R150G counted along it
T10 sequence (Q9UM73 with tags, fused parts or gaps): as the sequence (Q9UM73 with tags, fused parts or gaps L1196M/G1202R) above, with M635L, R641G counted along it
T7 sequence (Q9UM73 1116-1392 L1196M/G1202R limits assumed): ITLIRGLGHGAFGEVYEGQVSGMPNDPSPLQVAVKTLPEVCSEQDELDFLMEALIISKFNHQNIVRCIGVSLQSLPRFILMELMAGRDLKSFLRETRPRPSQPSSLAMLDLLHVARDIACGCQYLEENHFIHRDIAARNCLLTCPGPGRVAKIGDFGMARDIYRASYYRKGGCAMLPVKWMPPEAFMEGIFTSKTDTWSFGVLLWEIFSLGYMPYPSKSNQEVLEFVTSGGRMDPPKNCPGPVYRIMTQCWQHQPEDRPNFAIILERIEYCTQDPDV
T8 sequence (Q9UM73 1116-1392 limits assumed): as the sequence (Q9UM73 1116-1392 L1196M/G1202R limits assumed) above, with M81L, R87G counted along it
T3 sequence (P04629 510-781 limits assumed): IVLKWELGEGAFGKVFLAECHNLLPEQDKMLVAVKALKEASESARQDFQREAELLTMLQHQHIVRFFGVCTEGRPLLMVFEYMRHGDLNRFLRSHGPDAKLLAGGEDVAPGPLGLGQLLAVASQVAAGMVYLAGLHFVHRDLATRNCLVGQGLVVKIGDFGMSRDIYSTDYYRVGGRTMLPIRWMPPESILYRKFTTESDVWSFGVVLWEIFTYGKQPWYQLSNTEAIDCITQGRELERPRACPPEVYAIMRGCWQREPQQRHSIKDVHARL

Compound | IC50 [2] [nM] | IC50 [3] [nM] | Ki [4] [nM] | Ki [5] [nM] | IC50 [6] [nM] | IC50 [7] [nM] | Ki [8] [nM] | Ki [9] [nM] | Ki [10] [nM] | IC50 [11] [nM] | median progression-free survival [1] | overall response rate [1] | TPM3-NTRK1-wt/CD74-ROS1-G2032R selectivity ratio [12] | TPM3-NTRK1-wt/CD74-ROS1-wt selectivity ratio [12] | TPM3-NTRK1-wt/EML4-ALK-L1196M-G1202R selectivity ratio [12] | TPM3-NTRK1-wt/EML4-ALK-wt selectivity ratio [12]
C[C@@H](Oc1cc(-c2cnn(C3CCNCC3)c2)cnc1N)c1c(Cl)ccc(F)c1Cl [Crizotinib, crizotinib] |  |  |  |  |  |  |  |  |  |  | 9-19 months | 60-80% |  |  |  | 
C[C@H]1Oc2cc(cnc2N)-c2c(c(Cl)nn2CC2CC2)Cc2nn(C)cc2-c2ccc(F)cc21 [Example 90, (19R)-5-chloro-3-(cyclopropylmethyl)-16-fluoro-10,19-dimethyl-20-oxa-3,4,9,10,23-pentaazapentacyclo[19.3.1.0^2,^6.0^8,^12.0^13,^18]pentacosa-1(24),2(6),4,8,11,13,15,17,21(25),22-decaen-22-amine] | 0.1 to 50 | 0.1 to 50 | > 500 | < 50 | > 500 | 50 to 500 | < 50 | < 50 | < 50 | 0.1 to 50 |  |  | A (bin A for very high selectivity, ratio >30-fold) | A (bin A for very high selectivity, ratio >30-fold) | A (bin A for very high selectivity, ratio >30-fold) | A (bin A for very high selectivity, ratio >30-fold)
CCc1nn(C)c2c1-c1cnc(N)c(c1)O[C@H](C)c1cc(F)ccc1-c1nn(C)nc1C2 [Example 98, (19R)-3-ethyl-16-fluoro-5,10,19-trimethyl-20-oxa-4,5,9,10,11,23-hexaazapentacyclo[19.3.1.0^2,^6.0^8,^12.0^13,^18]pentacosa-1(24),2(6),3,8,11,13,15,17,21(25),22-decaen-22-amine] | 0.1 to 50 | 0.1 to 50 | 50 to 500 | < 50 | 50 to 500 | 0.1 to 50 | < 50 | < 50 | < 50 | 0.1 to 50 |  |  | A (bin A for very high selectivity, ratio >30-fold) | A (bin A for very high selectivity, ratio >30-fold) | C (bin C for moderate selectivity, ratio ≥1) | A (bin A for very high selectivity, ratio >30-fold)
C[C@H]1Oc2cc(cnc2N)-c2c(CC3CC3)nn(C)c2Cn2ncnc2-c2ccc(F)cc21 [Example 99, (19R)-3-(cyclopropylmethyl)-16-fluoro-5,19-dimethyl-20-oxa-4,5,8,9,11,23-hexaazapentacyclo[19.3.1.0^2,^6.0^8,^12.0^13,^18]pentacosa-1(24),2(6),3,9,11,13,15.17,21(25),22-decaen-22-amine] | 0.1 to 50 | 0.1 to 50 | > 500 | < 50 | > 500 | 50 to 500 | < 50 | < 50 | < 50 | 0.1 to 50 |  |  | A (bin A for very high selectivity, ratio >30-fold) | A (bin A for very high selectivity, ratio >30-fold) | B (bin B for high selectivity, ratio >10-fold) | A (bin A for very high selectivity, ratio >30-fold)

The next lines start with results.

IC50 [2] [nM] | IC50 [3] [nM] | Ki [4] [nM] | Ki [5] [nM] | IC50 [6] [nM] | IC50 [7] [nM] | Ki [8] [nM] | Ki [9] [nM] | Ki [10] [nM] | IC50 [11] [nM] | Compound | median progression-free survival [1] | overall response rate [1] | TPM3-NTRK1-wt/CD74-ROS1-G2032R selectivity ratio [12] | TPM3-NTRK1-wt/CD74-ROS1-wt selectivity ratio [12] | TPM3-NTRK1-wt/EML4-ALK-L1196M-G1202R selectivity ratio [12] | TPM3-NTRK1-wt/EML4-ALK-wt selectivity ratio [12]
0.1 to 50 | 0.1 to 50 | > 500 | < 50 | 50 to 500 | 50 to 500 | < 50 | < 50 | < 50 | 0.1 to 50 | Cc1cc2n(n1)Cc1cnn(CCF)c1-c1cnc(N)c(c1)O[C@H](C)c1cc(F)ccc1-2 [Example 92, (19R)-16-fluoro-3-(2-fluoroethyl)-10,19-dimethyl-20-oxa-3,4,8,9,23-pentaazapentacyclo[19.3.1.0^2,^6.0^8,^12.0^13,^18]pentacosa-1(24),2(6),4,9,11,13,15,17,21(25),22-decaen-22-amine] |  |  | A (bin A for very high selectivity, ratio >30-fold) | A (bin A for very high selectivity, ratio >30-fold) | C (bin C for moderate selectivity, ratio ≥1) | B (bin B for high selectivity, ratio >10-fold)
0.1 to 50 | 0.1 to 50 | > 500 | < 50 | > 500 | 0.1 to 50 | < 50 | < 50 | < 50 | 0.1 to 50 | C[C@H]1Oc2cc(cnc2N)-c2c(CC3CC3)nn(C)c2Cc2nn(C)nc2-c2ccc(F)cc21 [Example 100, (19R)-3-(cyclopropylmethyl)-16-fluoro-5,10.19-trimethyl-20-oxa-4,5,9,10,11 23-hexaazapentacyclo[19.3.1.0^2,^6.0^8,^12.0^13,^18]pentacosa-1(24),2(6) 3,8,11,13,15,17,21(25),22-decaen-22-amine] |  |  | A (bin A for very high selectivity, ratio >30-fold) | A (bin A for very high selectivity, ratio >30-fold) | A (bin A for very high selectivity, ratio >30-fold) | A (bin A for very high selectivity, ratio >30-fold)
